Laboratory results published in ChEMBL document CHEMBL5729124, “Autotaxin inhibitor compounds” (2022).

Target: Autotaxin (Homo sapiens, UniProt Q13822)
Assay: Human Autotaxin Assay: ATX activity is assayed in concentrated conditioned media from Hep3B human hepatocellular carcinoma cells by measuring the amount of choline released from the substrate, lysophosphatidylcholine (LPC) as it is cleaved to LPA. Conditioned media is collected from confluent Hep3B cells and concentrated 20-fold using Centriprep-30 filter devices (Millipore).

| Structure (SMILES) | IC50 [nM] |
| --- | --- |
| CCCn1cc(-n2c(Br)c(Sc3cccc(C(=O)O)c3)c3ccc(Cl)cc32)cn1 | < 500 |
| C#CCCCCn1cc(-n2c(C3CC3)c(Sc3cccc(C(=O)O)c3F)c3ccc(Cl)c(F)c32)cn1 | < 500 |
| CC(C)(CO)Cn1cc(-n2c(C3CC3)c(Sc3cccc(C(=O)O)c3F)c3ccc(Cl)c(F)c32)cn1 | < 500 |
